Read-outs that look alike come from different tables or passages of the source.

The values below come from patent US12378220B2, “WNT signaling pathway inhibitors for treatments of disease” (University of Maryland, Baltimore, priority 2016, dated 2025).

For one data set, the system named is Wnt/β-catenin pathway. The data set is described as follows: dual-luciferase TCF/LEF reporter assay, LiCl-activated, HEK293 cells. The format is cell-based. The conditions noted are these: Homo sapiens; for activity at 1 µM: HEK293, 24 h, At 1 μM concentration, remaining Wnt signaling activity, read-out: RLU % (Relative Light Units in reporter gene assays); for IC50: HEK293. How it is done: Lithium chloride (LiCl), which has been previously established as an activator of the Wnt/β-catenin pathway through its direct and indirect effects on GSK3β was used for pathway activation. The inhibition of the Wnt/β-catenin pathway by a compound may be determined after its incubation with cells for 24 hours.
The assay provided herein is a dual-luciferase assay to measure Wnt/β-catenin pathway activation using a TCF/LEF responsive reporter construct similar to that described previously (Thorne et al., 2010).

A short description of a further data set: plasma stability. Format: in vitro ADME. The conditions noted are these: mouse plasma, 37 degrees. Here is the method:
(§1) FIGS. 5A and 5B illustrate the metabolic stability of YW1149. S9 fraction from mouse liver tissues (FIG. 5A) and mouse plasma samples (FIG. 5B) were mixed with YW1149 and incubated at 37 degrees, respectively. *P<0.05 as compared to time 0.
(§2) The metabolic stability of these compounds was then estimated using YW1149 as a prototypical compound, with in vitro substrate depletion in mouse liver tissue S9 fraction as previously described (Jones and Houston, 2004).

Data set [1] deals with HepG2 cells. Briefly: glucose production, G6P expression and AMPK phosphorylation. Format: cell-based, human. The conditions noted are these: for expression of glucose 6-phosphatase (G6P) / glucose production: HepG2, 0.1 μM pyrvinium, 10 μM YW1149; for phosphorylation of AMPK: HepG2 cells.
The test system of the next data set is HEK293 cells. The data set is described as follows: cytotoxicity, Cell Counting Kit-8 colorimetric assay. The settings on record: Homo sapiens, HEK293, read-out: anti-proliferation IC50.
The next data set can be described thus: in vivo. The text has this:
Representative data from each group is shown.
Blood samples were collected at multiple time points. […] Ultra-performance liquid chromatography system with a triple quadruple detector (UPLC/TQD) was used for compound quantitation.

The nature of data set [2]: metabolic stability, substrate depletion in liver S9 fraction. The format is in vitro ADME, mouse. The conditions noted are these: 37 degrees, after one hour. How it is done:
as §1, §2

Another data set deals with primary hepatocytes. Briefly: glucose production in primary hepatocytes. The format is cell-based. The text has this: In light of this evidence, a class of triazole-based inhibitors were synthesized and tested, as described herein.
Data set [3] has as its system HepG2 cells. The data set is described as follows: expression of Wnt pathway proteins. Format: cell-based, human. The settings on record: FIG. 3. Here is the method: HepG2 cells were treated by YW1149 (vehicle, 0.1, 1 μM).
Data set [4] deals with WiDr, SW620, HT29, HEK_LTV, and T84 cell lines. Briefly: cell proliferation and growth inhibition assay (CCK-8), cell line panel. Format: cell-based, human. The conditions noted are these: 72 h, FIG. 12. Here is the method:
Cell Proliferation and Growth Inhibition Assay. HT-29, HCT-116, WiDr, SW620, SW480, T84, A549, MCF-7, HepG2, Hela cells were cultured in respective growth medium. Cells of log phase were used. 3000-5000 cells/well were seeded in 96-well plates with a 100 μL volume. After 24 h, Compounds were dissolved to […] with DMSO, and a 3-fold serial dilution of the compounds from 5×10^−5 M to […] was performed. 2 μL of compound solution was added to 998 μL of growth medium, the mixture was vortexed sufficiently. 100 μL of the mixture was correspondingly added to the 96-well plate. 2 μL DMSO instead of compound solution was used as the 0% inhibitor control. After coincubation for 72 h, the old medium was removed and 100 μL of 10% CCK-8 in culture medium was added. 2 h later the plates were read in the microplate reader (Bio-Rad) at 450 nm. The data was calculated using Graph Pad Prism version 5.0. The IC50 were fitted using a nonlinear regression model with a sigmoidal dose response.

Data set [5] deals with C57BL/6 mice on high-fat diet. The data set is described as follows: YW1128 in high-fat diet mice (liver histology, IPGTT, body weight). Format: in vivo. How it is done: Mice were treated with YW1128 and representative liver histology was observed through H&E staining. C57BL/6 mice were placed on a high-fat diet. Seven weeks later (week 0), the mice received either vehicle or YW1128 by IP injection for 11 weeks. Regarding treatment with YW1128, the mice were initially treated at a dose of 10 mg/kg/2 days, which was increased to 40 mg/kg/2 days from week 8. The mice were then euthanized at the end of 11 weeks. Liver histology for vehicle (FIGS. 33A and 33B) and YW1128 (FIGS. 33C and 33D) was examined by H&E staining.
An intraperitoneal glucose tolerance test (IPGTT) was conducted on high-fat diet (HFD) groups at the end of the study. C57BL/6 mice (n=3-4 per group) were put on a high fat diet. Seven weeks later (week 0), the mice received either vehicle or YW1128 by IP injection for 11 weeks. Regarding the treatment with YW1128, the mice were initially treated at a dose of 10 mg/kg/2 days, which was increased to 40 mg/kg/2 days from week 8. FIG. 34A describes the glucose levels at up to 120 minutes post-injection at week 0. FIG. 34B describes the glucose levels at up to 120 minutes post-injection at week 11, where *P<0.05 and **P<0.01, compared to the […].
The effect of YW1128 on body weight was also observed in mice having normal diets (NC) and those having high-fat (HF) diets. C57BL/6 mice (n=3-4 per group) were put on either an HF diet or an NC diet. Seven weeks later, the mice received either YW1128 or vehicle by IP injection. Regarding the treatment with YW1128, the mice were treated at a dose of 40 mg/kg/2 days for seven weeks. The results of such study are shown in FIG. 35, where *P<0.05 for the comparison between HF-vehicle and the other three groups.

In data set [6] the test system is C57BL/6 mice on Western high-fat diet. The data set is described as follows: YW1128 on high-fat diet-induced steatosis, liver protein analysis. Format: in vivo. The settings on record: I.P. 40 mg/kg/2 days, 11 weeks. From the text: FIGS. 36A to 36D illustrate the effect of YW1128 on a high-fat diet (HFD)-induced steatosis. FIG. 36A illustrates representative liver histology by H&E staining. FIG. 36B illustrates an intraperitoneal glucose tolerance test (IPGTT) performed at the end of a study. FIG. 36C illustrates body weight monitoring performed during the treatment.
C57BL/6 mice (n=7/group) were put on a Western high-fat diet (HFD) or normal chow diet (NCD). Seven weeks later, the mice received either vehicle or YW1128 by I.P., 40 mg/kg/2 days, for 11 weeks. Representative liver histology was measured by H&E staining (FIG. 36A). An intraperitoneal glucose tolerance test (IPGTT) was conducted at the end of the study (FIG. 36B). Body weight for the mice was monitored during the treatment (FIG. 36C).

In data set [7] the test system is C57BL/6 mice on high-fat diet. The conditions noted are these: intraperitoneal. The text has this: C57BL/6 mice (n=6/group) were put either on high-fat (HF) or normal chow (NC) diet.
In the next data set the test system is SW620 cells. Briefly: quantitative real-time RT-PCR of Wnt regulated genes. Format: cell-based, human. Here is the method:
Quantitative Real-time RT-PCR. The total RNA extracted from the cells using TRIzol (Invitrogen) and 2 μg was reverse transcribed in a 20-μl volume system (QuantiTect Reverse Transcription Kit (Qiagen)) for quantitative PCR assays. SYBR green quantitative real-time PCR analyses were carried out using gene-specific primers (working concentration at 250 nM) in StepOnePlus real time PCR system (Applied Biosystems, AB), using the housekeeping gene GAPDH as an internal control. The PCR running procedure was as follows: 4 min denaturing at 95° C., followed by 40 cycles of 30 seconds of denaturing at 95° C. and then annealing and extension at 60° C. for 1 min.

The subject of the next data set is HT-29 cells. Briefly: colony formation assay. The conditions noted are these: 0-30 μM, 2 weeks. The format is cell-based, human. How it is done: Colony Formation Assay. HT-29 and SW620, SW480 cells were seeded into 6-well dishes with the medium containing 0, 1, 3, 10, 30 μM/L of YW2013 or YW2044, 500 cells/well. After 2 weeks, cells were fixed with 4% paraformaldehyde solution and stained with 0.5% crystal violet for 1 h at room temperature. The images of colonies were captured by microscopy.

The test system of the next data set is SW480 cells. The data set is described as follows: Western blot of Wnt signaling proteins. The format is cell-based, human. The settings on record: 48 h. How it is done: Using a Wester Blot, compounds YW2013 and YW2123 were tested in SW480 cells to determine their effect on the expression of Axin-2, β-catenin, and c-myc.
Western Blot: 1×10^6 Cells of SW480 cells were seeded into 6-well plates overnight. A concentration of 3, 10, 30 μM/L YW2013 and 3, 10 μM/L YW2123 was added after 24 h, medium with 1‰ DMSO was used as the control. Cells were exposed to treatment for 48 h. The dishes was washed twice using precold PBS and 100 μL of RIPA then added. After incubating plates on ice for 15 min, cells were scraped carefully and centrifuged for 10 minutes at 14,000 g at 4° C. immediately. The remaining supernatant and lysates were maintained at −70° C. A Bio-Rad protein assay kit (500-0002) was used to quantitate the cell lysates. The concentration was adjusted to 2 mg/ml. A ratio of 1:1 2× loading buffer was added and the samples were denatured by boiling. Protein samples were separated on 4-15% SDS-polyacrylamide gel (SDS-PAGE) and transferred onto the PVDF membranes (Millipore). Immune complexes were formed by incubation of the proteins with primary antibody β-catenin, c-myc, Axin-2, and GAPDH at 4° C. overnight. A second antibody with horseradish peroxidase (HRP, sigma) conjugated was used then. Blots were developed by enhanced chemiluminescence (Thermo).

The mark [8] stands for this setting: Table 3, values in nM, read-out: IC50.
Setting [9] is: high-fat diet mice, IP injection.

Regarding `COc1ccccc1-n1nnc(C(=O)Nc2ccc3ccccc3n2)c1C` [YW1149, 1-(2-Methoxyphenyl)-5-methyl-N-(quinolin-2-yl)-1H-1,2,3-triazole-4-carboxamide], the activity at 1 µM with Wnt/β-catenin pathway is 5%. For the same compound, the IC50 with Wnt/β-catenin pathway (FIG. 1, cellular luciferase gene reporter assay, read-out: IC50, Wnt/β-catenin pathway inhibition) was determined as 74 nM. In the data set with Wnt/β-catenin pathway (setting [8]), the IC50 came out at 88 nM. Further, the stability in plasma result in the data set “plasma stability” is recorded as “stable in plasma for up to eight hours”. For the same compound, in the data set on HepG2 cells [1], the “expression of glucose 6-phosphatase (G6P)” value was “significantly suppress”, the glucose production entry is listed as “significantly suppress” and the “phosphorylation of AMPK” value was “increase phosphorylation”. For the same compound, the IC50 with HEK293 cells is > 100000 nM. Moreover, the bioavailability in “in vivo” (C57BL/6, mouse) amounted to 75%. The intravenous half-life result in the data set “in vivo” (mouse, iv, 10 mg/kg) is given as “one”. Further, the “metabolism in liver S9 fraction” value in data set [2] is recorded as “Only minor metabolism was observed after one hour”. Further, in the data set on primary hepatocytes, the glucose production result is reported as “reduces glucose production”. Moreover, in the data set with HepG2 cells [3], the Axin protein expression entry is listed as “increased”; the “β-catenin and target gene c-Myc protein” value was “attenuation”.
Turning to `Cc1ccccc1-n1nnc(C(=O)Nc2ccc3ccccc3n2)c1C` [YW1128, 5-Methyl-N-(quinolin-2-yl)-1-(o-tolyl)-1H-1,2,3-triazole-4-carboxamide], the activity at 1 µM with Wnt/β-catenin pathway stood at 3.7%. For the same compound, the IC50 in the data set on Wnt/β-catenin pathway (setting [8]) was determined as 7.7 nM. Besides, the growth inhibitory activity result in data set [4] is given as “micromolar growth inhibitory activity”. Also, the “liver histology (H&E), fatty liver disease” value in [5] (high-fat diet mice, IP 11 weeks) is on record as “did not exhibit any histology of fatty liver disease”. Besides, in data set [5] (setting [9]), the body weight gain entry is recorded as “decrease body weight gain” and the “glucose tolerance (IPGTT)” value is listed as “significantly improve glucose tolerance”. For the same compound, the “toxicity of subchronic treatment” value in [5] (mice, IP, up to 40 mg/kg/2 days) was “did not cause any obvious toxicity”. Further, the CK1a in liver entry in data set [6] was “did not show any significant change”. In addition, the “phosphorylation of AMPKα1 at threonine 172 (p-AMPKα) in liver” value in data set [6] (vs vehicle-treated livers, 40 mg/kg) is given as “increased phosphorylation”.
Turning to `Cc1cc(/C=C/c2ccc3cc(N(C)C)ccc3[n+]2C)c(C)n1-c1ccccc1` [Pyrvinium, pyrvinium, reference compound], in the data set with HepG2 cells [1], the “expression of glucose 6-phosphatase (G6P)” value is “significantly suppress”, the glucose production result was “significantly suppress” and the “phosphorylation of AMPK” value is reported as “increase phosphorylation”. Besides, the weight gain entry in [7] is listed as “decrease weight gain”. In addition, in the data set with HepG2 cells [3], the Axin protein expression entry is reported as “increased”; the “β-catenin and target gene c-Myc protein” value was “attenuation”.
With `CCc1ccccc1-n1ncc(C(=O)Nc2ccc3ccccc3n2)c1C` [YW2044, 1-(2-Ethylphenyl)-5-methyl-N-(quinolin-2-yl)-1H-pyrazole-4-carboxamide], the “mRNA expression of Wnt regulated genes (Axin-2 and/or cyclin D1)” value with SW620 cells is reported as “reduce mRNA expression”. In addition, the growth inhibitory activity entry in data set [4] was “micromolar growth inhibitory activity”. In addition, in the data set with HT-29 cells, the colony formation entry is recorded as “dose dependent reduction”. Moreover, the Axin-2 expression result in the data set on SW480 cells is “noticeable effect”.
